System: Saccharomyces cerevisiae ABC16-Green Monster
Conditions: 18 h; 30 °C; YPD
Procedure: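 Growth inhibition of the drug-sensitive S. cerevisiae ABC16-Green Monster strain (16 ABC transporters deleted) in YPD at 30 °C for 18 h. […] dilution series […] in biological replicates; IC50 from OD600 (18 h minus 0 h) fitted by variable-slope nonlinear regression in GraphPad Prism. Library compounds were first screened at 150 µM, and only those with at least 70% inhibition went to dose-response; the rest are marked inactive.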

SMILES | IC50 growth inhibition [µM]
CN1CCC(NCc2cccc(-c3ccc(S(=O)(=O)NCc4ccccc4)cc3)c2)CC1 | 50.8
CC(C)c1csc(NC(=O)c2cnn(-c3ccccc3F)c2C(F)(F)F)n1 | 31.3
c1ccc(-c2cn3nc(NCc4ccccc4CN4CCOCC4)sc3n2)cc1 | 106
CC(=O)NCC1CN(c2ccc(N3CCSCC3)c(F)c2)C(=O)O1 (configuration not stated) [Sutezolid] | > 75
COc1ccc(/C=C/c2ccc3c(Cl)cc(Cl)c(O)c3n2)cc1 | 22.3
CCOC(=O)c1c(NC(=O)c2c(F)c(F)c(F)c(F)c2F)sc(C(N)=O)c1C | 47.8
COC1=CC(C)=CC(C)C(O)C(C)CC(C)=CC=CC(OC)C(C(C)C(O)C(C)C2(O)CC(O)C(C)C(C(C)C)O2)OC1=O (configuration not stated) [Bafilomycin A1] | 0.164
CC(=O)c1ccc(-c2ccc(C(=O)N3CCCc4ccccc43)o2)cc1 | 52.4
CCCOC(=O)C1=C(C)NC2=C(C(=O)CC(c3ccc(OC)c(OC)c3)C2)C1c1ccc(Cl)cc1Cl (configuration not stated) [GNF-Pf-5672] | 5.08
Cc1nc2ccccc2nc1SC(C)C(=O)c1c[nH]c2ccccc12 (configuration not stated) | 33.8
CC(=O)NCC1CN(c2ccc(-c3ccc(CNCc4cn[nH]n4)cc3)c(F)c2)C(=O)O1 (configuration not stated) [Radezolid] | > 75
Cc1cc(NCCc2ccccc2)nc(NC(=N)Nc2ccc(Cl)cc2)n1 | 53.8
CCC1(O)C(=O)OCc2c1cc1n(c2=O)Cc2cc3c(CN(C)C)c(O)ccc3nc2-1 (configuration not stated) [Topotecan] | > 75
CC1=NN(c2nc3ccccc3[nH]2)C(=O)C1Cc1ccccc1 (configuration not stated) [CBR110] | 3.48
C=CCn1c(C)cc(C(=O)CSc2nc3ccccc3[nH]2)c1C | 4.24
CCCC(=O)NC(c1ccc(Cl)cc1)c1ccc2cccnc2c1O (configuration not stated) [GNF-Pf-3257] | 55.9
CCCCc1ccc(C(=O)Nc2nccc3ccccc23)nc1 | 54.7
Cc1nc([P+](c2ccccc2)(c2ccccc2)c2ccccc2)c(N2CCCCC2)o1 [GNF-Pf-445] | 9.44
N#Cc1c(N2CCCC2)nn(C(=O)Nc2ccc(Cl)c(Cl)c2)c1N | 4.53
OCCNc1nc(Oc2ccc(-c3ccccc3)cc2)nc2ccccc12 | 21.7
C(#Cc1ccc(-c2cc[nH]n2)s1)c1ccccc1 | 18.9

SMILES | IC50 growth inhibition [µM]
O=C(NC1CC1)c1ccc(N2CCOc3ccc(Cl)cc32)s1 | 32.6
CC(C)(C)c1ccc(NC(=O)c2ccc[nH]c2=S)cc1 | 25.4
CN(C)c1ccc(C(O)(c2ccc(N(C)C)cc2)c2ccc(N(C)C)cc2)cc1 | 0.317
O=C(COc1cccc(F)c1)Nc1nc(-c2ccccn2)cs1 | 35.1
O=CN(O)CCCP(=O)(O)O [Fosmidomycin] | > 75
CCC(=C(c1ccccc1)c1ccc(OCCN(C)C)cc1)c1ccccc1 [Tamoxifen] | 3.13
COc1ccc(-c2nnc3ccc(-c4cccc(C(C)C)c4)cn23)cc1OC | 52.3
CCC1C=CC=CCC(C)C(O)C(C)(O)C(=O)C(C)C(O)C(C)C(=O)C(C)C(O)C(C)C=CC(=O)OC2C(C)C(CC1)OC1(CCC(C)C(CC(C)O)O1)C2C (configuration not stated) [Oligomycin] | > 75
Cc1ccc(Oc2ccc(NC(=O)CNc3ccccc3N3CCCC3=O)cc2)cc1 | 31.5
CN1CCCN=C1C=Cc1cccs1.O=C(O)c1cc2ccccc2c(Cc2c(O)c(C(=O)O)cc3ccccc23)c1O [Pyrantal Pamoate] | > 75
CC1COC(Cn2cncn2)(c2ccc(Oc3ccc(Cl)cc3)cc2Cl)O1 (configuration not stated) | 39
O=C1CCc2ccc(OCCCCN3CCN(c4cccc(Cl)c4Cl)CC3)cc2N1 [Aripiprazole] | 9.31
Clc1cccc(Nc2ncc(-c3ccc4c(c3)OCCCO4)s2)c1 | 15.4
O=C1c2ccccc2C2=Nc3ccccc3SC(c3cccc(F)c3)C12 (configuration not stated) | 1.68
COC(=O)Nc1nc2ccc(C(=O)c3ccccc3)cc2[nH]1 [Mebendazole] | 5.42
N#CC(c1ccc(Cl)cc1)c1c(Cl)cc(-n2ncc(=O)[nH]c2=O)cc1Cl (configuration not stated) [Diclazuril] | 68.5
CCS(=O)(=O)N1Cc2ccccc2CC1C(=O)Nc1nc2ccc(F)cc2s1 (configuration not stated) | 74
CCC1(O)C(=O)OCc2c1cc1n(c2=O)Cc2cc3ccccc3nc2-1 (configuration not stated) [Camptothecin] | 1.61
O=c1c(Cl)c(Cl)cnn1-c1nc2ccccc2[nH]1 | 13.2
COc1ccc(Cn2cnc3c(-c4ccco4)nc(Cl)nc32)cc1 | 51.6
Cc1cc(C(=O)NCCSc2ccccc2)c(C)n1C(C)C | 60.5

SMILES | IC50 growth inhibition [µM]
Br.Cc1ccnc(Nc2nc(-c3ccccn3)cs2)c1 [GNF-Pf-4739] | 4.6
CNC1CCC(c2ccc(Cl)c(Cl)c2)c2ccccc21.Cl (configuration not stated) [Sertraline] | 13.4
N.N.O=C([O-])C1(C(=O)[O-])CCC1.[Pt+2] [Carboplatin] | > 75
Oc1c(C(Nc2ccccn2)c2cccc(Cl)c2Cl)ccc2cccnc12 (configuration not stated) [GNF-Pf-5250] | > 150
CC1COC(Cn2cncn2)(c2ccc(Oc3ccc(Cl)cc3)cc2Cl)O1 (configuration not stated) [Difenoconazole] | 3.17
O=C(Nc1nnc(-c2ccc(Cl)cc2)o1)c1cccc(C(F)(F)F)c1 | 71.2
CC[C@@H]([C@H](C)O)n1ncn(-c2ccc(N3CCN(c4ccc(OC[C@@H]5CO[C@@](Cn6cncn6)(c6ccc(F)cc6F)C5)cc4)CC3)cc2)c1=O | 50
Cn1c(N)c(C(=O)CSc2nnc(-c3ccccc3)c(-c3ccccc3)n2)c(=O)n(C)c1=O | 22.9
COc1cc(N2CCC(N3CCN(C)CC3)CC2)ccc1Nc1ncc(Cl)c(Nc2ccccc2P(C)(C)=O)n1 [Brigatinib] | > 75
COc1ccc(-c2onc(C(F)(F)F)c2-c2ccc(Cl)cc2)c(O)c1 | 48.6
Cc1ccc(Nc2nc(N)nc(CN(C)Cc3nc(=O)c4ccccc4[nH]3)n2)cc1 | 32.3
N#CC(C#N)=NNc1cc(Cl)cc(Cl)c1 | 20.6
CC1CCCC=CC2CC(O)CC2C(O)C=CC(=O)O1 (configuration not stated) [Brefeldin A] | 31.9
COc1cccc(-n2nnnc2S(C)(=O)=O)c1 | 53.8
CC(C)(C)c1ccc2c(c1)CN(Cc1ccc(Cl)cc1)CO2 | 14.3
OC(Cn1cncn1)(Cn1cncn1)c1ccc(F)cc1F [Fluconazole] | 3.14
CCC(C)n1ncn(-c2ccc(N3CCN(c4ccc(OCC5COC(Cn6cncn6)(c6ccc(Cl)cc6Cl)O5)cc4)CC3)cc2)c1=O (configuration not stated) [Itraconazole] | 7.53
CCOc1ccc(-c2nc(CNCCc3ccc(F)cc3)cs2)cc1 | 42.5
CNCCC(Oc1ccc(C(F)(F)F)cc1)c1ccccc1 (configuration not stated) | 48.3
CN1CCN(c2ccccc2NC(=O)c2cccc(Oc3ccccc3)c2)CC1 | 98.9
Cc1ccc(NC(=O)c2ccc(CN3CCN(C)CC3)cc2)cc1Nc1nccc(-c2cccnc2)n1 [Imatinib] | > 75

SMILES | IC50 growth inhibition [µM]
COc1ccc(Nc2nc(Nc3ccc(C)cc3)nc(Sc3nc4ccccc4[nH]3)n2)cc1 [CBR499] | 2.31
O=P(O)(O)C(O)(Cn1ccnc1)P(=O)(O)O [Zoledronate] | > 75
OC(CNC1CCCCC1)Cn1c2ccc(I)cc2c2cc(I)ccc21 (configuration not stated) | 3.98
Cc1ccc(CNc2ncnc3sccc23)cc1 | 13.4
Cc1cc(C(=O)Cn2nnc3ccccc3c2=O)c(C)n1-c1ccccc1F | 20.5
C=C1[C@@H](C)[C@H]2[C@H](Cc3ccccc3)NC(=O)[C@]23OC(=O)/C=C/[C@H](O)CCC[C@@H](C)C/C=C/[C@H]3[C@@H]1O [Cytochalasin B] | > 75
CC(CN1c2ccccc2Sc2ccccc21)N(C)C (configuration not stated) [Promethazine] | 98.9
Cc1cc(=O)nc(N/N=C/c2cc(C)n(CC(F)(F)F)c2C)[nH]1 | 81.9
C=CCC1C=C(C)CC(C)CC(OC)C2OC(O)(C(=O)C(=O)N3CCCCC3C(=O)OC(C(C)=CC3CCC(O)C(OC)C3)C(C)C(O)CC1=O)C(C)CC2OC (configuration not stated) [Tacrolimus/FK-506] | > 75
CC1(C)C=Cc2cc(C(=N)NOC(=O)c3ccccc3)ccc2O1 | 4.33
O=C(Nc1ccc2c(c1)B(O)OC2)c1ccccc1C(F)(F)F | 1.72
COc1cc(NC(C)CCCN)c2ncccc2c1 (configuration not stated) [Primaquine] | 107
Cc1cc(N(C)Cc2ccccc2Br)nc(N)n1 | 52.6
CC(C)(C)n1nc(Cc2cccc3ccccc23)c2c(N)ncnc21 | 27.6
CN(C)c1cc(NC(=O)Nc2ccccc2)c2ccccc2n1 | 39.4
O=C([C@@H](c1ccc(Cl)cc1)c1cccnc1)N1CCN(c2ccc(C(F)(F)F)cc2)CC1 | 50
CCCn1c(NC(=O)c2ccc3ccccc3n2)nc2ccccc21 | 40
COC1C=COC2(C)Oc3c(C)c(O)c4c(c3C2=O)C(=O)C(=CNN2CCN(C)CC2)C(=C4O)NC(=O)C(C)=CC=CC(C)C(O)C(C)C(O)C(C)C(OC(C)=O)C1C (configuration not stated) [Rifampicin] | > 75
O=C(CC1NCCCC1O)Cn1cnc2ccccc2c1=O (configuration not stated) [Febrifugine] | > 75

From the supplement of paper PMC8837787
